# Experimental data: publication PMC6985185 (Breast cancer research and treatment, 2019)
# Several values for one entry are separate records, joined by “and”; a condition that tells them apart may be missing. Equal values may be shown once.
# What was measured:
# [1] = system: TamR (tamoxifen resistant) xenograft tumors; assay: TamR Study 1: growth of tamoxifen-resistant xenograft tumors under fulvestrant; format: in vivo, Nu:J mice
# [2] = Circulating plasma levels of fulvestrant after a single injection (LC/MS/MS); format: in vivo, Nu:J mice; settings: single injection of 25 or 200 mg/kg; plasma collected 1, 3, 5, or 7 days after administration
# [3] = Circulating plasma levels of fulvestrant at euthanasia, TamR Study 1 (LC/MS/MS); format: in vivo, Nu:J mice; settings: female, Nu/J, mouse, subcutaneous
# [4] = system: ER target genes AGR2, AGR3, and KRT13; assay: RT-qPCR of tamoxifen responsive ER target genes in TamR tumors; format: in vivo, Nu:J mice
# uterus = assay: Uterine wet weight in LTED tumor bearing mice; format: in vivo, Nu:J mice; settings: ovariectomized LTED tumor bearing mice, after 4 weeks of treatment at the LTED study doses
# [5] = system: HCC1428 breast cancer xenograft tumors; assay: HCC1428 Study: growth of estrogen dependent xenograft tumors; format: in vivo, Nu:J mice; settings: 25 mg/kg sc qw, 4 weeks; ovariectomized mice receiving oral estradiol
# [6] = current clinical protocol; cited from earlier work
# breast cancer [7] = settings: 250 mg monthly; patients that had already progressed during AI treatment; cited from earlier work
# ER = settings: months of treatment with originally approved 250 mg/month regimen; cited from earlier work
# breast cancer [8] = settings: 500 vs 250 mg/month, loading regimen 500 mg on d1, d14, d29; cited from earlier work
# estrogen receptor (ER) [9] = target: T1, estrogen receptor (ER) (Homo sapiens, UniProt P03372); assay: Immunoblot of ER levels in HCC1428 tumors; settings: 25 mg/kg sc qw, 4 weeks
# T1 sequence (P03372 1-595): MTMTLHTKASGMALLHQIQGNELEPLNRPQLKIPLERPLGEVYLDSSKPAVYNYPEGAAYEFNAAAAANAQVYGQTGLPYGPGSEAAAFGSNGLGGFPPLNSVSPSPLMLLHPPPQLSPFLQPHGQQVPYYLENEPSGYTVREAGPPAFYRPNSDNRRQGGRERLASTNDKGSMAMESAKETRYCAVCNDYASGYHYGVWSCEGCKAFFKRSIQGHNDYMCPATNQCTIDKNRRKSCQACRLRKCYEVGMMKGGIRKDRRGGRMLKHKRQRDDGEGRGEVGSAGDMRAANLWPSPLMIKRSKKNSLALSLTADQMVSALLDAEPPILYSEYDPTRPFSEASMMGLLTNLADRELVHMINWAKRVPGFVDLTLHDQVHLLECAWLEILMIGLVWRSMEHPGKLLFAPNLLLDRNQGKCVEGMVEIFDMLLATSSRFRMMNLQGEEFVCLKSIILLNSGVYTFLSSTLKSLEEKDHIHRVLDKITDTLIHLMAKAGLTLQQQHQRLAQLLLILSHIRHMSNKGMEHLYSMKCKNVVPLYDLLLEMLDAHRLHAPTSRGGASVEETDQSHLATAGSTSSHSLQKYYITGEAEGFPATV
# estrogen receptor (ER) [10] = target: T1, estrogen receptor (ER); assay: Immunoblot of ER levels in TamR tumors, Study 1; settings: 28 days of treatment
# [11] = all doses administered (25-200 mg/kg)
smiles,measurement,setting,value
"C[C@]12CC[C@@H]3c4ccc(O)cc4C[C@@H](CCCCCCCCC[S+]([O-])CCCC(F)(F)C(F)(F)F)[C@H]3[C@@H]1CC[C@@H]2O (stereo partly shown) [Fulvestrant, fulvestrant]",Inhibition of TamR tumor growth vs vehicle control,"[1]; 4 weekly injections of 25, 50, 100, or 200 mg/kg (all doses), no significant differences between doses",significant inhibition of tumor growth
same,% tumor growth inhibition of TamR tumors,"[1]; fulvestrant 25 mg/kg sc weekly, day 0 of treatment",−1%
same,% tumor growth inhibition of TamR tumors,"[1]; fulvestrant 25 mg/kg sc weekly, day 2 of treatment",25%
same,% tumor growth inhibition of TamR tumors,"[1]; fulvestrant 25 mg/kg sc weekly, day 4 of treatment",20%
same,% tumor growth inhibition of TamR tumors,"[1]; fulvestrant 25 mg/kg sc weekly, day 7 of treatment",21%
same,% tumor growth inhibition of TamR tumors,"[1]; fulvestrant 25 mg/kg sc weekly, day 9 of treatment",18%
same,% tumor growth inhibition of TamR tumors,"[1]; fulvestrant 25 mg/kg sc weekly, day 11 of treatment",24%
same,% tumor growth inhibition of TamR tumors,"[1]; fulvestrant 25 mg/kg sc weekly, day 14 of treatment",33%
same,% tumor growth inhibition of TamR tumors,"[1]; fulvestrant 25 mg/kg sc weekly, day 16 of treatment",29%
same,% tumor growth inhibition of TamR tumors,"[1]; fulvestrant 25 mg/kg sc weekly, day 18 of treatment",39%
same,% tumor growth inhibition of TamR tumors,"[1]; fulvestrant 25 mg/kg sc weekly, day 21 of treatment",44%
same,% tumor growth inhibition of TamR tumors,"[1]; fulvestrant 25 mg/kg sc weekly, day 23 of treatment",45%
same,% tumor growth inhibition of TamR tumors,"[1]; fulvestrant 25 mg/kg sc weekly, day 25 of treatment",47%
same,% tumor growth inhibition of TamR tumors,"[1]; fulvestrant 25 mg/kg sc weekly, day 28 of treatment",47%
same,% tumor growth inhibition of TamR tumors,"[1]; fulvestrant 50 mg/kg sc weekly, day 0 of treatment",−1%
same,% tumor growth inhibition of TamR tumors,"[1]; fulvestrant 50 mg/kg sc weekly, day 2 of treatment",24%
same,% tumor growth inhibition of TamR tumors,"[1]; fulvestrant 50 mg/kg sc weekly, day 4 of treatment",20%
same,% tumor growth inhibition of TamR tumors,"[1]; fulvestrant 50 mg/kg sc weekly, day 7 of treatment",26%
same,% tumor growth inhibition of TamR tumors,"[1]; fulvestrant 50 mg/kg sc weekly, day 9 of treatment",28%
same,% tumor growth inhibition of TamR tumors,"[1]; fulvestrant 50 mg/kg sc weekly, day 11 of treatment",31%
same,% tumor growth inhibition of TamR tumors,"[1]; fulvestrant 50 mg/kg sc weekly, day 14 of treatment",37%
same,% tumor growth inhibition of TamR tumors,"[1]; fulvestrant 50 mg/kg sc weekly, day 16 of treatment",40%
same,% tumor growth inhibition of TamR tumors,"[1]; fulvestrant 50 mg/kg sc weekly, day 18 of treatment",44%
same,% tumor growth inhibition of TamR tumors,"[1]; fulvestrant 50 mg/kg sc weekly, day 21 of treatment",51%
same,% tumor growth inhibition of TamR tumors,"[1]; fulvestrant 50 mg/kg sc weekly, day 23 of treatment",58%
same,% tumor growth inhibition of TamR tumors,"[1]; fulvestrant 50 mg/kg sc weekly, day 25 of treatment",59%
same,% tumor growth inhibition of TamR tumors,"[1]; fulvestrant 50 mg/kg sc weekly, day 28 of treatment",62%
same,% tumor growth inhibition of TamR tumors,"[1]; fulvestrant 100 mg/kg sc weekly, day 0 of treatment",−3%
same,% tumor growth inhibition of TamR tumors,"[1]; fulvestrant 100 mg/kg sc weekly, day 2 of treatment",23%
same,% tumor growth inhibition of TamR tumors,"[1]; fulvestrant 100 mg/kg sc weekly, day 4 of treatment",20%
same,% tumor growth inhibition of TamR tumors,"[1]; fulvestrant 100 mg/kg sc weekly, day 7 of treatment",27%
same,% tumor growth inhibition of TamR tumors,"[1]; fulvestrant 100 mg/kg sc weekly, day 9 of treatment",16%
same,% tumor growth inhibition of TamR tumors,"[1]; fulvestrant 100 mg/kg sc weekly, day 11 of treatment",32%
same,% tumor growth inhibition of TamR tumors,"[1]; fulvestrant 100 mg/kg sc weekly, day 14 of treatment",44%
same,% tumor growth inhibition of TamR tumors,"[1]; fulvestrant 100 mg/kg sc weekly, day 16 of treatment",36%
same,% tumor growth inhibition of TamR tumors,"[1]; fulvestrant 100 mg/kg sc weekly, day 18 of treatment",50%
same,% tumor growth inhibition of TamR tumors,"[1]; fulvestrant 100 mg/kg sc weekly, day 21 of treatment",46%
same,% tumor growth inhibition of TamR tumors,"[1]; fulvestrant 100 mg/kg sc weekly, day 23 of treatment",53%
same,% tumor growth inhibition of TamR tumors,"[1]; fulvestrant 100 mg/kg sc weekly, day 25 of treatment",49%
same,% tumor growth inhibition of TamR tumors,"[1]; fulvestrant 100 mg/kg sc weekly, day 28 of treatment",58%
same,% tumor growth inhibition of TamR tumors,"[1]; fulvestrant 200 mg/kg sc weekly, day 0 of treatment",2%
same,% tumor growth inhibition of TamR tumors,"[1]; fulvestrant 200 mg/kg sc weekly, day 2 of treatment",28%
same,% tumor growth inhibition of TamR tumors,"[1]; fulvestrant 200 mg/kg sc weekly, day 4 of treatment",24%
same,% tumor growth inhibition of TamR tumors,"[1]; fulvestrant 200 mg/kg sc weekly, day 7 of treatment",24%
same,% tumor growth inhibition of TamR tumors,"[1]; fulvestrant 200 mg/kg sc weekly, day 9 of treatment",25%
same,% tumor growth inhibition of TamR tumors,"[1]; fulvestrant 200 mg/kg sc weekly, day 11 of treatment",39%
same,% tumor growth inhibition of TamR tumors,"[1]; fulvestrant 200 mg/kg sc weekly, day 14 of treatment",47%
same,% tumor growth inhibition of TamR tumors,"[1]; fulvestrant 200 mg/kg sc weekly, day 16 of treatment",48%
same,% tumor growth inhibition of TamR tumors,"[1]; fulvestrant 200 mg/kg sc weekly, day 18 of treatment",53%
same,% tumor growth inhibition of TamR tumors,"[1]; fulvestrant 200 mg/kg sc weekly, day 21 of treatment",61%
same,% tumor growth inhibition of TamR tumors,"[1]; fulvestrant 200 mg/kg sc weekly, day 23 of treatment",66%
same,% tumor growth inhibition of TamR tumors,"[1]; fulvestrant 200 mg/kg sc weekly, day 25 of treatment",67%
same,% tumor growth inhibition of TamR tumors,"[1]; fulvestrant 200 mg/kg sc weekly, day 28 of treatment",74%
same,Time of highest plasma level after single injection,[2],highest levels detected one day after administration
same,concentration at 7 days after final dose,[3]; 25 mg/kg,34.6 ng/mL and 57 nM
same,concentration at 7 days after final dose,[3]; 50 mg/kg,64.9 ng/mL and 107 nM
same,concentration at 7 days after final dose,[3]; 100 mg/kg,95.6 ng/mL and 157 nM
same,concentration at 7 days after final dose,[3]; 200 mg/kg,207 ng/mL and 340 nM
same,mRNA expression of anterior gradient protein 3 (AGR3) in TamR tumors,[4]; [11],dramatic downregulation
same,mRNA expression of keratin 13 (KRT13) in TamR tumors,[4]; [11],dramatic downregulation
same,mRNA expression of AGR2 in TamR tumors,[4]; only for doses that resulted in quantitative downregulation of ER protein,modest reduction in AGR2 expression
same,Uterine wet weight (measure of uterine stimulation),uterus,non-significant trend toward reduced uterine weight
same,Effect on HCC1428 xenograft tumor growth,[5],Tumor stasis
same,Cmax observed per current protocol in patients,[6],~28 ng/mL
same,Response rate in the EFFECT trial,breast cancer [7],7.4%
same,Patients exhibiting intratumoral [(18)F]fluoroestradiol (FES) binding during follow up PET scans,ER,30%
same,Clinical response to higher dose with loading regimen,breast cancer [8],improved response rate and increased time to progression
same,ER expression in HCC1428 tumors (western blotting),estrogen receptor (ER) [9],modest but significant downregulation of ER expression
same,ER downregulation in TamR tumors (immunoblot),estrogen receptor (ER) [10]; 25 mg/kg dose,did not result in significant ER downregulation
same,ER downregulation in TamR tumors (immunoblot),"estrogen receptor (ER) [10]; 50, 100, and 200 mg/kg doses",Significant (p < 0.001) downregulation of ER
